Test results published in ChEMBL document CHEMBL1909046, “DrugMatrix in vitro pharmacology data”.

Experiments:
[1] = target: 5-hydroxytryptamine receptor 6 (Homo sapiens, UniProt P50406); type: cell membranes, HeLa, Membrane; conditions: for Ki: read-out: Ki; for all read-outs here: in other assays of this panel Not Active means under 50% inhibition at 10 µM
[2] = target: Vasopressin V1a receptor (Homo sapiens, UniProt P37288); type: cell membranes, Membrane; conditions: hek293; note: in other assays of this panel Not Active means under 50% inhibition at 10 µM
[3] = target: T1, C-C chemokine receptor type 4 (Homo sapiens, UniProt P51679); type: cell membranes, Chem-1, Membrane; conditions: chem-1; note: in other assays of this panel Not Active means under 50% inhibition at 10 µM
T1 sequence (P51679 whole entry): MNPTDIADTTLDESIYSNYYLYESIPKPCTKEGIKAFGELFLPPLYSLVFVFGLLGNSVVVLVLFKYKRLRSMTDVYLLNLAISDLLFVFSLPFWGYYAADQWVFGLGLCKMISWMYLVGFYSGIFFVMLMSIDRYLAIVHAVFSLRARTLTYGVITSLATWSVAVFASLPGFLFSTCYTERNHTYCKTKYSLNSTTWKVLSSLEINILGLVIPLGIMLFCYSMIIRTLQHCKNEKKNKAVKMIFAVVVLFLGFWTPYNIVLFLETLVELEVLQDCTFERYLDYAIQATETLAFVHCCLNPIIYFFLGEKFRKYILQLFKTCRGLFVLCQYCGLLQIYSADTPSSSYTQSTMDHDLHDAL

[4] = target: Nitric oxide synthase 1 (Rattus norvegicus, UniProt P29476); type: tissue-based, Cerebellum; note: in other assays of this panel Not Active means under 50% inhibition at 10 µM
[5] = target: Matrix metalloproteinase-9 (Homo sapiens, UniProt P14780); type: cell-based
[6] = target: Receptor tyrosine-protein kinase erbB-2 (Homo sapiens, UniProt P04626); type: cell-based; conditions: insect cells
[7] = target: T2, Receptor-type tyrosine-protein phosphatase C (Homo sapiens, UniProt P08575); set-up: species or system Escherichia coli
T2 sequence (P08575 whole entry): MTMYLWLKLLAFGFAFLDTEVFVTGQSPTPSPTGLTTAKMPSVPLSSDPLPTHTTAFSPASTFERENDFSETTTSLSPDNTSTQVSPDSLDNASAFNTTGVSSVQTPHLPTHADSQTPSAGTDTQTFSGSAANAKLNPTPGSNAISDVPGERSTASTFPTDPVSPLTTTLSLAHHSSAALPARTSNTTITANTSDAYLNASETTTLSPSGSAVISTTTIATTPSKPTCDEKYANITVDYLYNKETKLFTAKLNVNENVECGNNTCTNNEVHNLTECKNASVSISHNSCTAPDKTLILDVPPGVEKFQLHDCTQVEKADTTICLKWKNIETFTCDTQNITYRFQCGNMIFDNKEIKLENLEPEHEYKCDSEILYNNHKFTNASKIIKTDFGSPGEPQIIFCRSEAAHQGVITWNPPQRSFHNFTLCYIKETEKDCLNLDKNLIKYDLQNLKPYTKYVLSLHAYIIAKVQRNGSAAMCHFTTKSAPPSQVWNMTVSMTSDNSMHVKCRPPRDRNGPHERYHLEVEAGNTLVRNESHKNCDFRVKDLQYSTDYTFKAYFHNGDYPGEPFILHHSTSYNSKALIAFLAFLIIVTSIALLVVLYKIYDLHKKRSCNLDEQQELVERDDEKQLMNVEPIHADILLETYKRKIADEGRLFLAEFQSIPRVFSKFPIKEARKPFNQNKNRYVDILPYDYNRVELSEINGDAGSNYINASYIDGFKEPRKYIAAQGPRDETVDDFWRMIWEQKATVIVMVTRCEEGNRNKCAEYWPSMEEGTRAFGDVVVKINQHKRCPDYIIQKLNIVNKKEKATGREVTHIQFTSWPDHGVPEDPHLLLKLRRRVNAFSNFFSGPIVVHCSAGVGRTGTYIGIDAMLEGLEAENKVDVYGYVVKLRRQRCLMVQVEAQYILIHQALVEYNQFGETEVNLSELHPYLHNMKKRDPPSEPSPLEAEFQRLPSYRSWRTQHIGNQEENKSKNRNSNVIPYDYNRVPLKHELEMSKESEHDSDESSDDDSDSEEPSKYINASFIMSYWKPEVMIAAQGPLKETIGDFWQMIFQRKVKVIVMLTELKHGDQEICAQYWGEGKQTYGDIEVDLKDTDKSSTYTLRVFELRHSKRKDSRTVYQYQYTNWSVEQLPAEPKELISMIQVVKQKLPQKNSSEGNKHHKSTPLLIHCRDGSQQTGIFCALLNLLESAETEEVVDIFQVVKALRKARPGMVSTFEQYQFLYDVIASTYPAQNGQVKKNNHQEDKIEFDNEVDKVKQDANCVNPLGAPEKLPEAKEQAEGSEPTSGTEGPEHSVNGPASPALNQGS

[8] = target: Adenosine receptor A2a (Homo sapiens, UniProt P29274); experiment: DRUGMATRIX: Adenosine A2A radioligand binding (ligand: […]); type: cell membranes, HEK293, Membrane; conditions: hek293; Not Active = under 50% inhibition at 10 µM
Sequence of Adenosine receptor A2a (P29274 whole entry): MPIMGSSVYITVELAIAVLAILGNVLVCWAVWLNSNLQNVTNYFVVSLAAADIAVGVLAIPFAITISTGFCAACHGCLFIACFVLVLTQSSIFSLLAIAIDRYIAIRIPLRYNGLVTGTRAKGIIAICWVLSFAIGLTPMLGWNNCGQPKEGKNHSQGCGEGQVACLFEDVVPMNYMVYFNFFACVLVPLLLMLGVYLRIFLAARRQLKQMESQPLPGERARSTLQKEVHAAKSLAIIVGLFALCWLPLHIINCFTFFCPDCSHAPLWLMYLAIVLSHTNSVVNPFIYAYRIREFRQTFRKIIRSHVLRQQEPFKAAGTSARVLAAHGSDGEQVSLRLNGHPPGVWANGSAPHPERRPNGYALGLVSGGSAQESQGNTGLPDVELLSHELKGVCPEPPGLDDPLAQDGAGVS

Sequence of Receptor tyrosine-protein kinase erbB-2 (P04626 whole entry): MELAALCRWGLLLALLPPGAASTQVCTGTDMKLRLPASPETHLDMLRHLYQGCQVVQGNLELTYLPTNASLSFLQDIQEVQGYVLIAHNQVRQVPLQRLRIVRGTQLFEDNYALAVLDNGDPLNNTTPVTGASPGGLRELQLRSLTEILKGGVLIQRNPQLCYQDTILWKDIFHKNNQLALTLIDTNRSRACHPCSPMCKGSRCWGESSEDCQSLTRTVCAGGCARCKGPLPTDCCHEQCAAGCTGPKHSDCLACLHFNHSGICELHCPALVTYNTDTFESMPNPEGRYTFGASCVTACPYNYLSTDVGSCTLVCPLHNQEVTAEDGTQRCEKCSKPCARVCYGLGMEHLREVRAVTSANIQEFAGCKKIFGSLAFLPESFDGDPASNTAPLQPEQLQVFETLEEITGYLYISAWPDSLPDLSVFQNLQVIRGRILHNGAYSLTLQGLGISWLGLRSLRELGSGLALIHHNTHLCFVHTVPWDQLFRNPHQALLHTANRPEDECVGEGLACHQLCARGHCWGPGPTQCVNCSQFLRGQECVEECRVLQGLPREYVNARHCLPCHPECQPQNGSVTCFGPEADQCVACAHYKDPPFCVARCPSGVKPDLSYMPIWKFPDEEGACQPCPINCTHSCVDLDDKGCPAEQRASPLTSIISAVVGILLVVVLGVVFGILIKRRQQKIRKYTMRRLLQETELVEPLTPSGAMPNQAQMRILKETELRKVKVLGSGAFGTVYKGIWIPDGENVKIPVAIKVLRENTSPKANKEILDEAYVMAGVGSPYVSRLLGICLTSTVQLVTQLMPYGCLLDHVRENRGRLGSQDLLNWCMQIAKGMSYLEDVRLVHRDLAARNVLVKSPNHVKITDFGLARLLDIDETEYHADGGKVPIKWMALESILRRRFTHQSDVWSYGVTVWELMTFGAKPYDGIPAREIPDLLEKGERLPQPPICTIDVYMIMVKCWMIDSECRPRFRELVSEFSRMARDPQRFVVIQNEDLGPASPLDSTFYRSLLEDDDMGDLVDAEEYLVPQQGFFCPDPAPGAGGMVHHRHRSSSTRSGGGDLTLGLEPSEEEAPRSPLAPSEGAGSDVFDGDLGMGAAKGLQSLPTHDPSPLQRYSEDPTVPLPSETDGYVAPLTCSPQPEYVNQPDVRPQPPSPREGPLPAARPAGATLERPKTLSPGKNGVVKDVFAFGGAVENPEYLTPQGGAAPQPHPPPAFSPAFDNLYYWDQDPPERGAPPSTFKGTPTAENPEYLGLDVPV
Sequence of 5-hydroxytryptamine receptor 6 (P50406 whole entry): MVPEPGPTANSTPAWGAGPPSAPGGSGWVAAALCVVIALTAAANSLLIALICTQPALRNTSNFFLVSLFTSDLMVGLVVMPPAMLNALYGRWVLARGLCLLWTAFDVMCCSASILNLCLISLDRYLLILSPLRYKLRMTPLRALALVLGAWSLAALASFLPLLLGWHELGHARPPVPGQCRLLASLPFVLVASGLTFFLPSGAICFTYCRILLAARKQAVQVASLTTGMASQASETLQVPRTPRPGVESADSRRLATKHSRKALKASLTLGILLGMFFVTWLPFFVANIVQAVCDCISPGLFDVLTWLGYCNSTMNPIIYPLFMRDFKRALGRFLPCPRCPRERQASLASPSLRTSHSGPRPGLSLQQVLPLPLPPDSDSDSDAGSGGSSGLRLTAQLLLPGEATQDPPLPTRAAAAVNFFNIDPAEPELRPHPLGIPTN
Sequence of Nitric oxide synthase 1 (P29476 whole entry): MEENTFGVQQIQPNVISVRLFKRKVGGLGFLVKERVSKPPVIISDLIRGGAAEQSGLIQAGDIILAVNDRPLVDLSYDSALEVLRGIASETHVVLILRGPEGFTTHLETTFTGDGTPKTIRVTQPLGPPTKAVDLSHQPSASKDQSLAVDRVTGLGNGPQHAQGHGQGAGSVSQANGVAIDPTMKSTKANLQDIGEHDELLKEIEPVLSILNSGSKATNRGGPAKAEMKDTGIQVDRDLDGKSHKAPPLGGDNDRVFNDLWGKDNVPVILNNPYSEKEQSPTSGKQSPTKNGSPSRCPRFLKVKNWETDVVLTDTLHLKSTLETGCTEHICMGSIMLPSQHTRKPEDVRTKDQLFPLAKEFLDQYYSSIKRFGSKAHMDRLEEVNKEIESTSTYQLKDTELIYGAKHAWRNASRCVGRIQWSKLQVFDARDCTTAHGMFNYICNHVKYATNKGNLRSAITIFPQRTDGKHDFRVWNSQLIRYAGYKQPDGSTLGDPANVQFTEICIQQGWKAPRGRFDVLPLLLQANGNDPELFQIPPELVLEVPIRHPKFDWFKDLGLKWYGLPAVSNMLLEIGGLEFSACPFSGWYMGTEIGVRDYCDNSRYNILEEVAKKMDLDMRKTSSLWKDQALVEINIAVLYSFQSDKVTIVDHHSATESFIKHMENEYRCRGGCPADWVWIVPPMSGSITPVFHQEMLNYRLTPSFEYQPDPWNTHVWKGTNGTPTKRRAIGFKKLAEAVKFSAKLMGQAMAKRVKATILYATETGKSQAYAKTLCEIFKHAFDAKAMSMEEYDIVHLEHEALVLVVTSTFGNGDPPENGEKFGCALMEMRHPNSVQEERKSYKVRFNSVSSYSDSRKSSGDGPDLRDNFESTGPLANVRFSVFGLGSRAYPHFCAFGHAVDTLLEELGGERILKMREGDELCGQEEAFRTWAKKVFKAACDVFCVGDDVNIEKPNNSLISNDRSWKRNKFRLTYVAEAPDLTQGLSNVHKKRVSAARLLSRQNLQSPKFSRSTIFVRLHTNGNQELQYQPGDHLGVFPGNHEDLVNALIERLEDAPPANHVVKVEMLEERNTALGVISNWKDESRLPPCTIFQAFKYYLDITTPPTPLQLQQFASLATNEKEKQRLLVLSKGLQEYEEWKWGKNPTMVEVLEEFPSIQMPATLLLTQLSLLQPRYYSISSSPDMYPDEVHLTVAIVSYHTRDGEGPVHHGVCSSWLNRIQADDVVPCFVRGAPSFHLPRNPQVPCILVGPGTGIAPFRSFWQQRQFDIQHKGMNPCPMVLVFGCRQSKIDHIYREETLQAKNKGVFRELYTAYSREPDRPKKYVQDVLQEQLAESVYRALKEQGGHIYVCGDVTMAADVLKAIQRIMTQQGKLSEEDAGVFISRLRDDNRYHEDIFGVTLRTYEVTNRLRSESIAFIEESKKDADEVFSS
Sequence of Vasopressin V1a receptor (P37288 whole entry): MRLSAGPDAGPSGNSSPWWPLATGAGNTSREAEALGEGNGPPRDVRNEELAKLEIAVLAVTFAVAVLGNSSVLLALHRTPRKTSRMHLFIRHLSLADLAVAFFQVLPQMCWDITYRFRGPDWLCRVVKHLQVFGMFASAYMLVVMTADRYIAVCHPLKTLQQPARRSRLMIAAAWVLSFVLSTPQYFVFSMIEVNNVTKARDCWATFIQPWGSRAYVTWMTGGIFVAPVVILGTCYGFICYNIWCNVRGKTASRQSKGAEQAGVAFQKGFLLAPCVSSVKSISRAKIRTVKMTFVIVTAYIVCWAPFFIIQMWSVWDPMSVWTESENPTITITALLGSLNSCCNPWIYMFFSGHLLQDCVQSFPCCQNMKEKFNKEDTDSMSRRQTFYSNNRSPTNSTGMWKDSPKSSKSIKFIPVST
Sequence of Matrix metalloproteinase-9 (P14780 whole entry): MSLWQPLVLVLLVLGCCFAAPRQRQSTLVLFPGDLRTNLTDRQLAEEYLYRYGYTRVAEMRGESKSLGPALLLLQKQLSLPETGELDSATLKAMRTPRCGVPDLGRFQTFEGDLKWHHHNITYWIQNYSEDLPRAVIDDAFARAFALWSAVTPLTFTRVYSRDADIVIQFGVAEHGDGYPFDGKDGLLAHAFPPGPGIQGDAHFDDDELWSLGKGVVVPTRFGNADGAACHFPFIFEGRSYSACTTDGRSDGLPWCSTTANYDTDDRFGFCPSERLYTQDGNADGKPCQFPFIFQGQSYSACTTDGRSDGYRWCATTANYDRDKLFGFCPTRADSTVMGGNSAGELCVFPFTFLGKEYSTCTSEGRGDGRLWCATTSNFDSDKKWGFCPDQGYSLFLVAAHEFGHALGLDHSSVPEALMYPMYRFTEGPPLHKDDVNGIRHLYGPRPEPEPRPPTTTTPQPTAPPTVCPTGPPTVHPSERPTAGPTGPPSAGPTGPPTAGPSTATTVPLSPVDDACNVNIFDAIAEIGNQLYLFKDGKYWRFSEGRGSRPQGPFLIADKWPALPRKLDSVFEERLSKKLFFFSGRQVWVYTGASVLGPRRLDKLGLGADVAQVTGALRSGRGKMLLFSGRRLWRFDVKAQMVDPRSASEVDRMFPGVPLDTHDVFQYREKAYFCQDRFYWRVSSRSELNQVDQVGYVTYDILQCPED

Row | Compound | IC50 ([1]; read-out: IC50) | Ki [1] | IC50 [2] | IC50 [3] | IC50 [4] | IC50 [5] | IC50 [6] | IC50 [7] | IC50 [8] | IC50 ([1]; hela)
1 | c1ccc2sc(SSc3nc4ccccc4s3)nc2c1 [BENZOTHIAZYL DISULFIDE] | 5.28 µM | 2.45 µM | Not Active | Not Active | Not Active | Not Active | Not Active | Not Active | Not Active | –
2 | O=C1c2ccccc2C(=O)C1c1ccccc1 [PHENINDIONE] | – | – | Not Active | Not Active | Not Active | Not Active | Not Active | Not Active | Not Active | Not Active
3 | Nc1ccc(C(=O)O)c(O)c1 [AMINOSALICYLIC ACID] | – | – | Not Active | Not Active | Not Active | Not Active | Not Active | Not Active | Not Active | Not Active
4 | OC[C@H]1O[C@@H]2O[C@H]3[C@H](O)[C@@H](O)[C@@H](O[C@H]4[C@H](O)[C@@H](O)[C@@H](O[C@H]5[C@H](O)[C@@H](O)[C@@H](O[C@H]6[C@H](O)[C@@H](O)[C@@H](O[C@H]7[C@H](O)[C@@H](O)[C@@H](O[C@H]1[C@H](O)[C@H]2O)O[C@@H]7CO)O[C@@H]6CO)O[C@@H]5CO)O[C@@H]4CO)O[C@@H]3CO [ALFADEX] | – | – | Not Active | Not Active | Not Active | Not Active | Not Active | Not Active | Not Active | Not Active
5 | COC(=O)C[C@](O)(CCC(C)(C)O)C(=O)O[C@@H]1C(OC)=C[C@]23CCCN2CCc2cc4c(cc2[C@H]13)OCO4 [HARRINGTONINE] | – | – | Not Active | Not Active | Not Active | Not Active | Not Active | Not Active | Not Active | Not Active
6 | O=C1CN(/N=C/c2ccc([N+](=O)[O-])o2)C(=O)N1 [NITROFURANTOIN] | – | – | Not Active | Not Active | Not Active | Not Active | Not Active | Not Active | Not Active | Not Active
7 | C[N+](C)(C)CCOC(N)=O.[Cl-] [CARBACHOL] | – | – | Not Active | Not Active | Not Active | Not Active | Not Active | Not Active | Not Active | Not Active
8 | O=C(NCCN1CCOCC1)c1ccc(Cl)cc1 [MOCLOBEMIDE] | – | – | Not Active | Not Active | Not Active | Not Active | Not Active | Not Active | Not Active | Not Active
9 | CC12CCC(CC1)C(C)(C)O2 [EUCALYPTOL] | – | – | Not Active | Not Active | Not Active | Not Active | Not Active | Not Active | Not Active | Not Active
10 | CC(N)Cc1c[nH]c2ccc(OCc3cccs3)cc12 (configuration not stated) [BW-723C86] | 0.641 µM | 0.298 µM | Not Active | Not Active | Not Active | Not Active | Not Active | Not Active | Not Active | –
